The results in this text go back to ChEMBL document CHEMBL1145741, “Inhibition of bacterial IF2 binding to fMet-tRNA((fMet)) by aminoglycosides” (Bioorg Med Chem Lett, 2003).

Test [1] is described as follows: (§1) Inhibitory activity against the displacement of Picogreen from fMet-tRNA(fMet) by the aminoglycoside. Further details: species or system Staphylococcus aureus.
Test [2] has as its system Staphylococcus aureus. The test is described as follows: (§2) Maximal inhibition against the displacement of Picogreen from fMet-tRNA(fMet) by the aminoglycoside.
Test [3] has as its system Staphylococcus aureus. Put plainly: (§3) Denaturation rate constant of IF2 in the presence of aminoglycoside.
The nature of test [4]: Inhibitory activity of the aminoglycoside on Staphylococcus aureus IF-2 binding to fMet-tRNA(fMet).
Test [5] relates to Staphylococcus aureus. Put plainly: (§4) Maximal inhibition of the aminoglycoside on Staphylococcus aureus IF-2 binding to fMet-tRNA(fMet).
Test [6] relates to Staphylococcus aureus. The test is described as §4. The test is classed as functional.
Test [7] has as its system Staphylococcus aureus. Described as §1. The test is classed as functional.
The subject of test [8] is Staphylococcus aureus. Described as §3. Type of test: functional.
Test [9] has as its system Staphylococcus aureus. The test is described as §2. Type of test: functional.
Test [10] relates to Staphylococcus aureus. Put plainly: Inhibitory activity of the aminoglycoside on Staphylococcus aureus IF-2 binding to fMet-tRNA (fMet). Type of test: functional.

For orientation: IC50 means the concentration at which inhibition is half-maximal. What is called inhibition is the share of the control response that was lost under treatment. For `NCC[C@H](O)C(=O)N[C@@H]1C[C@H](N)[C@@H](O[C@H]2O[C@H](CN)[C@@H](O)[C@H](O)[C@H]2O)[C@H](O)[C@H]1O[C@H]1O[C@H](CO)[C@@H](O)[C@H](N)[C@H]1O` [AMIKACIN], the IC50 is 160 nM in [1] and 1020 nM in [4]. Further, the inhibition in the test on Staphylococcus aureus [2] worked out at 85%; with Staphylococcus aureus [5], 43%. In addition, the Denaturation rate constant in the test on Staphylococcus aureus [3] came out at 0.093 min⁻¹.
On the same counts, the results for `NC[C@@H]1O[C@H](O[C@H]2[C@@H](O)[C@H](O[C@@H]3[C@@H](O)[C@H](N)C[C@H](N)[C@H]3O[C@H]3O[C@H](CN)[C@@H](O)[C@H](O)[C@H]3N)O[C@@H]2CO)[C@H](N)[C@@H](O)[C@@H]1O` [FRAMYCETIN] are 9 nM, 50 nM, 100%, 76% and 0.095 min⁻¹.
`CNC1C(O)C(OC2C(N)CC(N)C(OC3OC(CN)CCC3N)C2O)OCC1(C)O` (configuration not stated) [GENTAMICIN C1A] showed an IC50 in [4] of 450 nM. This compound gave an inhibition in the test with Staphylococcus aureus [5] of 66%.
Consider `CN[C@@H]1C[C@H](N)[C@@H](O)[C@H](O[C@H]2O[C@H](CO)[C@H](O)[C@@H]3O[C@@]4(O[C@@H]23)O[C@H]([C@H](N)CO)[C@H](O)[C@H](O)[C@H]4O)[C@H]1O` [HYGROMYCIN], for which the IC50 in [1] was 278 nM; in test [4] it was 66000 nM. Also, the inhibition with Staphylococcus aureus [2] amounted to 81%; with Staphylococcus aureus [5], 84%. Also, the Denaturation rate constant in the test on Staphylococcus aureus [3] came to 0.096 min⁻¹.
With `NC[C@@H]1O[C@@H](O[C@H]2[C@H](O)[C@@H](O[C@H]3O[C@H](CO)[C@@H](O)[C@H](N)[C@H]3O)[C@H](N)C[C@@H]2N)[C@@H](O)[C@H](O)[C@H]1O` [KANAMYCIN A], the IC50 in test [1] amounted to 24 nM; in test [4] it was 17800 nM. In addition, the values for the inhibition with Staphylococcus aureus [2] and with Staphylococcus aureus [5] were 92% and 61%, respectively. Besides, the Denaturation rate constant in the test with Staphylococcus aureus [3] came out at 0.092 min⁻¹.
A word on the Inhibition: it is how much of the control response was suppressed. Read a low Inhibition as little suppression. For `CN[C@@H]1[C@@H](O)[C@@H](O[C@@H]2[C@@H](O)[C@H](O[C@H]3OC(CN)=CC[C@H]3N)[C@@H](N)C[C@H]2N)OC[C@]1(C)O` [SISOMICIN], the Inhibition in the test on Staphylococcus aureus [6] was found to be 75%. Moreover, the IC50 in the test on Staphylococcus aureus [7] and with Staphylococcus aureus [10] was 7 nM each time. For the same compound, the Denaturation rate constant in the test with Staphylococcus aureus [8] worked out at 0.087 min⁻¹. The compound further showed an inhibition in the test on Staphylococcus aureus [9] of 100%.
`CN[C@@H]1[C@H](O[C@H]2[C@H](O[C@H]3[C@H](O)[C@@H](O)[C@H](N=C(N)N)[C@@H](O)[C@@H]3N=C(N)N)O[C@@H](C)[C@]2(O)C=O)O[C@@H](CO)[C@H](O)[C@H]1O` [STREPTOMYCIN]: the IC50 in test [1] amounted to 1790 nM; in [4], 1490 nM. Moreover, the inhibition amounted to 95% with Staphylococcus aureus [2] and 43% in the test with Staphylococcus aureus [5]. The Denaturation rate constant in the test with Staphylococcus aureus [3] was 0.094 min⁻¹.
